Where a SMILES comes first, the peptide text is derived from it. The star is where a group is joined. Cbz = O=C(OCc1ccccc1)*
System: MCF7 cells, level of ubiquitinated substrates
Assay: Western blot of ubiquitinated substrates in MCF7 cells
Type: cell-based
Settings: control, n = 3, Figures 7A,B
Method: DMSO was used as vehicle control. Following the end of the incubation times, MCF7 cells were harvested using 3X NuPAGE SDS Sample buffer (Invitrogen, Cat# NP0007) containing β-mercaptoethanol and 1x DNAse and sonicated in Bioruptor Pico sonicator (Diagenode) (10-sec pulse on, 10 s pulse off for 10 cycles). After boiling them at 95°C for 10 min, the samples run on 4–12% SDS-PAGE agarose gel using MOPS buffer. Proteins were transferred to the nitrocellulose membrane. Ubiquitinated substrates were detected using a mouse anti-ubiquitin (P4D1) antibody (Santa Cruz, Cat# sc-8017). Mouse anti-β-actin (Sigma-Aldrich, Cat# A5441, in 1:10000 dilution) was used to detect actin as a loading control. 800CW goat anti-mouse IgG (H + L) (Li-COR, Cat# 926–32210, 1:5000) were used as secondary antibodies. The signal was detected using direct imaging by Odyssey® CLx Infrared Imaging System (LI-COR). The experiment was repeated in triplicates. The total amount of ubiquitinated substrates and the actin level was quantified using Licor Image studio densitometry software, and the total level of ubiquitinated substrates was normalized to the actin level.

Structure (SMILES)	level of ubiquitinated substrates (MG132 5 µM, 4 h)	level of ubiquitinated substrates (bAP15 1 µM, 3 h)
CC(C)C[C@@H](C=O)NC(=O)[C@H](CC(C)C)NC(=O)[C@H](CC(C)C)NC(=O)OCc1ccccc1 [MG132] (Cbz-Leu-Leu-Leu-aldehyde)	increased the level of ubiquitinated substrates	–
C=CC(=O)N1C/C(=C\c2ccc([N+](=O)[O-])cc2)C(=O)/C(=C/c2ccc([N+](=O)[O-])cc2)C1 [bAP15]	–	increased the level of ubiquitinated substrates
